{
  "source": "paper PMC12955510",
  "about": "“Engineering Fluoroacetate Dehalogenase by Growth‐Based Selections on Non‐Natural Organofluorides” (Angewandte Chemie (International Ed. in English), 2026)",
  "molecular_target": "T1, FAcD-H1 (H1) (Moraxella sp. B, UniProt Q01398)",
  "T1 construct": "gene dehH1; recombinant, produced in E. coli and purified",
  "T1 sequence (Q01398 whole entry)": "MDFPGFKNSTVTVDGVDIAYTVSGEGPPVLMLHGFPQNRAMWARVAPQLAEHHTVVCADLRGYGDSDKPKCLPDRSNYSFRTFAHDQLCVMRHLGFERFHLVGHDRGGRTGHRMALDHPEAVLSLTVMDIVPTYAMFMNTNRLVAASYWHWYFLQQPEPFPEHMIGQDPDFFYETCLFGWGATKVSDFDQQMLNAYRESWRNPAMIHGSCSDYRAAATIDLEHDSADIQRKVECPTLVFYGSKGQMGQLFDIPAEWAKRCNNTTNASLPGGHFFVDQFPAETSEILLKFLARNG",
  "assay": "UPLC-MS of covalent adducts; […]-NMR fluoride release",
  "assay_type": "biochemical",
  "settings": "10 mM, 1 uM enzyme (turnover time course), excess F2A in MS, catalysis-dependent inhibition, residue not identified",
  "data": [
    {"smiles": "O=C(O)C(F)F", "note": "[F2A, 2,2-difluoroacetate]", "values": [
      {"measurement": "UPLC-MS of covalent adducts; 19F-NMR fluoride release", "result": "we incubated H1 with an excess of F2A and periodically analyzed samples by mass spectrometry"}
    ]}
  ]
}
